Reference: the NIST ThermoML archive (doi:10.1021/acs.jced.6b00536)

Experiment: xn = mol fraction of the nth substance listed
Conditions: Gas, Frequency=0.05 MHz, Single path-length method, x2 = 0.058

FC(F)(F)C(F)(F)C(F)(F)F [octafluoropropane] + N#N
Conditions	speed of sound [m/s]
252.62 K, 0.0858 kPa	109
252.62 K, 0.1039 kPa	108.4
252.62 K, 0.1203 kPa	107.8
252.62 K, 0.137 kPa	107.18
252.62 K, 0.1525 kPa	106.62
252.62 K, 0.1669 kPa	106.06
252.62 K, 0.1773 kPa	105.75
252.62 K, 0.1861 kPa	105.38
252.62 K, 0.1862 kPa	105.38
257.71 K, 0.08757 kPa	110.16
257.71 K, 0.1056 kPa	109.59
257.71 K, 0.1227 kPa	109
257.71 K, 0.1398 kPa	108.4
257.71 K, 0.1558 kPa	107.86
257.71 K, 0.1702 kPa	107.33
257.71 K, 0.181 kPa	107.04
257.71 K, 0.1898 kPa	106.68
257.71 K, 0.19 kPa	106.68
257.71 K, 0.2222 kPa	105.46
257.71 K, 0.2396 kPa	104.86
257.71 K, 0.2541 kPa	104.28
257.71 K, 0.2547 kPa	104.37
262.83 K, 0.08917 kPa	111.32
262.83 K, 0.1075 kPa	110.77
262.83 K, 0.125 kPa	110.2
262.83 K, 0.1429 kPa	109.63
262.83 K, 0.1589 kPa	109.12
262.83 K, 0.1737 kPa	108.6
262.83 K, 0.1844 kPa	108.31
262.83 K, 0.1937 kPa	107.97
262.83 K, 0.1942 kPa	107.97
262.83 K, 0.2273 kPa	106.8
262.83 K, 0.2449 kPa	106.21
262.83 K, 0.2605 kPa	105.64
262.83 K, 0.2771 kPa	105.01
262.83 K, 0.2894 kPa	104.6
267.94 K, 0.09058 kPa	112.46
267.94 K, 0.1095 kPa	111.93
267.94 K, 0.1273 kPa	111.39
267.94 K, 0.1462 kPa	110.83
267.94 K, 0.1619 kPa	110.33
267.94 K, 0.1773 kPa	109.83
267.94 K, 0.1883 kPa	109.56
267.94 K, 0.1978 kPa	109.24
267.94 K, 0.1983 kPa	109.23
267.94 K, 0.2324 kPa	108.11
267.94 K, 0.2503 kPa	107.55
267.94 K, 0.2663 kPa	106.99
267.94 K, 0.2836 kPa	106.41
267.94 K, 0.2966 kPa	105.98
273.07 K, 0.09281 kPa	113.6
273.07 K, 0.1111 kPa	113.09
273.07 K, 0.1299 kPa	112.57
273.07 K, 0.149 kPa	112.03
273.07 K, 0.1655 kPa	111.55
273.07 K, 0.1819 kPa	111.06
273.07 K, 0.1923 kPa	110.81
273.07 K, 0.2019 kPa	110.5
273.07 K, 0.2023 kPa	110.49
273.07 K, 0.2381 kPa	109.41
273.07 K, 0.2555 kPa	108.88
273.07 K, 0.2726 kPa	108.31
273.07 K, 0.2918 kPa	107.72
273.07 K, 0.3039 kPa	107.38
278.15 K, 0.0943 kPa	114.71
278.15 K, 0.1132 kPa	114.22
278.15 K, 0.1321 kPa	113.71
278.15 K, 0.1515 kPa	113.2
278.15 K, 0.1686 kPa	112.73
278.15 K, 0.1856 kPa	112.27
278.15 K, 0.1961 kPa	112.03
278.15 K, 0.2057 kPa	111.72
278.15 K, 0.2062 kPa	111.72
278.15 K, 0.2428 kPa	110.66
278.15 K, 0.2609 kPa	110.16
278.15 K, 0.2783 kPa	109.63
278.15 K, 0.2983 kPa	109.03
278.15 K, 0.3119 kPa	108.65
283.2 K, 0.09562 kPa	115.81
283.2 K, 0.1152 kPa	115.33
283.2 K, 0.1344 kPa	114.84
283.2 K, 0.1548 kPa	114.34
283.2 K, 0.1718 kPa	113.88
283.2 K, 0.1892 kPa	113.45
283.2 K, 0.1997 kPa	113.19
283.2 K, 0.2093 kPa	112.93
283.2 K, 0.2102 kPa	112.92
283.2 K, 0.2476 kPa	111.9
283.2 K, 0.2662 kPa	111.41
283.2 K, 0.2839 kPa	110.89
283.2 K, 0.3047 kPa	110.33
283.2 K, 0.3184 kPa	109.97
288.26 K, 0.09724 kPa	116.9
288.26 K, 0.117 kPa	116.43
288.26 K, 0.1367 kPa	115.96
288.26 K, 0.1569 kPa	115.48
288.26 K, 0.175 kPa	115.05
288.26 K, 0.193 kPa	114.61
288.26 K, 0.2034 kPa	114.38
288.26 K, 0.2133 kPa	114.1
288.26 K, 0.2142 kPa	114.08
288.26 K, 0.2525 kPa	113.14
288.26 K, 0.2716 kPa	112.65
288.26 K, 0.2896 kPa	112.16
288.26 K, 0.3111 kPa	111.61
288.26 K, 0.3249 kPa	111.24
